Results taken from patent publication US20240018158A1, “BRM TARGETING COMPOUNDS AND ASSOCIATED METHODS OF USE” (Prelude Therapeutics Incorporated, priority 2020, published 2024).

Biological target: SMARCA2 (Homo sapiens (Human), UniProt P51531)
Assay: SMARCA2 HiBiT degradation assay in HEK293T cells
Type: cell-based
Details: 293T HiBiT assay, 24 h; for DC50: read-out: DC50 (SM2-293T) SMARCA2 degradation potency; for Dmax: HEK-293T, read-out: Dmax % (SM2-293T) maximum SMARCA2 degradation within the concentrations tested
Description: HiBiT peptide knock-in of SMARCA2 in LgBiT expressing HEK293T cells was performed by CRISPR-mediated tagging system as described Promega. The homozygous HiBiT knock-in on c-terminus SMARCA2 was confirmed by sanger sequence. SMARCA2-HiBiT knock-in Hela monoclonal cell (CS302366) and SMARCA4-HiBiT knock-in Hela monoclonal cell (CS3023226) were purchased from Promega. The heterozygous HiBiT-knock-in was confirmed by sanger sequence in both SMARCA2-HiBiT and SMARCA4-HiBiT monoclonal cells. Compounds were prepared in a low dead volume plate at 3-fold serial dilution, and then transferred 25 nL/well into a 384 well plate (Corning: #356661) by Agilent Bravo liquid dispenser. SMARCA2-HiBiT monoclonal HEK293T cells were added at 5,000/well/25 uL into the compound containing 384 well plate. After 24 h incubation, 25 uL/well of Nano-Glo HiBiT Lytic detection buffer (Promega: N3050) was added to the wells and incubate for 10 min on a shaker, centrifuged for 5 min, and then RLU was detected on a microplate reader (Envision, PerkinElmer). The RLU ratio values are normalized to percent inhibition as follows: % inhibition=((HC−LC)−(compound−LC))/(HC−LC))*100, where HC=high control=mean signal of DMSO only; LC=low control=mean signal of 100% inhibition of RLU by 1 μM PRT1001728. An 11-point dose response curve for each compound will be generated using normalized % inhibition to determine IC50 values based on the equation: Y=Bottom+((Top-Bottom)/(1+((IC50/X)^Slope))), where Y is the % inhibition in the presence of X inhibitor concentration; Top=the top plateau of the curve; Bottom=the bottom plateau of the curve; Slope=Hill coefficient; DC50=concentration of compound with 50% degradation in relation to top/high control. DC50 values were determined by using XLfit Model 205.

Sequence of SMARCA2 (P51531 whole entry): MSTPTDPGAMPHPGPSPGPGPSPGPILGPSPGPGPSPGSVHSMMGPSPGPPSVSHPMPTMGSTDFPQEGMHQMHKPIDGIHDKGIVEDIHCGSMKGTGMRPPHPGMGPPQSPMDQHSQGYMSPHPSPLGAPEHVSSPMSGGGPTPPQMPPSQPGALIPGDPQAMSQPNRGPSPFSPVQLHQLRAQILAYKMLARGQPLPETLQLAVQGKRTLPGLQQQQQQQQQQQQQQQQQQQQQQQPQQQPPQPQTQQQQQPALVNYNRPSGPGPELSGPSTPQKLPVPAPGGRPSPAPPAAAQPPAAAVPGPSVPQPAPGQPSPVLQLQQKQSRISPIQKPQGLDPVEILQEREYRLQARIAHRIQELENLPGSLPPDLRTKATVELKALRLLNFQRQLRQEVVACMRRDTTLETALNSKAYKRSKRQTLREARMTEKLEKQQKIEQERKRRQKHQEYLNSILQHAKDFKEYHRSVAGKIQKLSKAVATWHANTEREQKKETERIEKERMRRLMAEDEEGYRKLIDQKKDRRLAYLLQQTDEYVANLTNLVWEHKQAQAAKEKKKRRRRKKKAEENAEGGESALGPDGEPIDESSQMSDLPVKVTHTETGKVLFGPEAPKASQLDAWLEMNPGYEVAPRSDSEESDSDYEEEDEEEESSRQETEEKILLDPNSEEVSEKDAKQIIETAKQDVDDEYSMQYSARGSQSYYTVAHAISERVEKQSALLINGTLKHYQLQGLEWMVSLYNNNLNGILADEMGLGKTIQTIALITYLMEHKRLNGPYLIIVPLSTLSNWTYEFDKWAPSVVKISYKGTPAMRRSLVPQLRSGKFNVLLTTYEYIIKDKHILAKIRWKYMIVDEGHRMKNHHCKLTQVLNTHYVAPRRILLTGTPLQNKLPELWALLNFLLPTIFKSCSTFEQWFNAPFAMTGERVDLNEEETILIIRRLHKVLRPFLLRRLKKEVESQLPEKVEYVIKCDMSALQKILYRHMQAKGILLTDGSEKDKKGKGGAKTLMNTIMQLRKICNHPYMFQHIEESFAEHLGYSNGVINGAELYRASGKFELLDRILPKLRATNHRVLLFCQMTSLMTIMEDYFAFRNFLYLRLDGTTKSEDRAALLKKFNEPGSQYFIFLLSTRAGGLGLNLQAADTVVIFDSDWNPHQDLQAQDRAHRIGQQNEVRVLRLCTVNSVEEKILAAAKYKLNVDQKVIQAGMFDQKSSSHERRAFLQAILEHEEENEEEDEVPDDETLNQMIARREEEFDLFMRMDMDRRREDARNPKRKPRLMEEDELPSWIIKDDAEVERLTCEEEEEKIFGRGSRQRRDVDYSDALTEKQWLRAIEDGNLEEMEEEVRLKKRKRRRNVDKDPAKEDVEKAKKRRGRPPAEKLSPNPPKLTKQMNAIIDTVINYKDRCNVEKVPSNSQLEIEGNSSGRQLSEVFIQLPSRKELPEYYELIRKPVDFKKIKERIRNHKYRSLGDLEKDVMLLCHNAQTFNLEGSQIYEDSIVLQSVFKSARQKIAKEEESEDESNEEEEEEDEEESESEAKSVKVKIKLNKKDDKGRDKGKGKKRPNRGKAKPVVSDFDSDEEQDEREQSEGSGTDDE

Structure (SMILES) | DC50 | Dmax
Cc1ncsc1-c1ccc([C@H](C)NC(=O)[C@@H]2C[C@@H](O)CN2C(=O)[C@@H](c2cc(OCCN3CCC(N4CCC(N5CCN6c7cc(-c8ccccc8O)nnc7NC[C@H]6C5)CC4)CC3)no2)C(C)C)cc1 [Example 44, (2S,4R)-4-hydroxy-1-((R)-2-(3-(2-(4-((S)-2-(2-hydroxyphenyl)-5,6,6a,7,9,10-hexahydro-8H-pyrazino[1′,2′:4,5]pyrazino[2,3-c]pyridazin-8-yl)-[1,4′-bipiperidin]-1-yl)ethoxy)isoxazol-5-yl)-3-methylbutanoyl)-N-((S)-1-(4-(4-methylthiazol-5-yl)phenyl)ethyl)pyrrolidine-2-carboxamide] | < 100 nM | > 75%
Cc1ncsc1-c1ccc([C@H](C)NC(=O)[C@@H]2C[C@@H](O)CN2C(=O)[C@@H](c2cc(OCCN3CCCC(N4CCN5c6cc(-c7ccccc7O)nnc6NC[C@H]5C4)CC3)no2)C(C)C)cc1 (stereo partly drawn) [Example 16, (2S,4R)-4-hydroxy-1-((2R)-2-(3-(2-(4-((S)-2-(2-hydroxyphenyl)-5,6,6a,7,9,10-hexahydro-8H-pyrazino[1′,2′:4,5]pyrazino[2,3-c]pyridazin-8-yl)azepan-1-yl)ethoxy)isoxazol-5-yl)-3-methylbutanoyl)-N-((S)-1-(4-(4-methylthiazol-5-yl)phenyl)ethyl)pyrrolidine-2-carboxamide] | < 100 nM | > 75%
Cc1ncsc1-c1ccc([C@H](C)NC(=O)[C@@H]2C[C@@H](O)CN2C(=O)[C@@H](NC(=O)OCCN2CCC(N3CCN4c5cc(-c6ccccc6O)nnc5NC[C@H]4C3)CC2)C(C)(C)C)cc1 [Example 80, 2-(4-((S)-2-(2-hydroxyphenyl)-5,6,6a,7,9,10-hexahydro-8H-pyrazino[1′,2′:4,5]pyrazino[2,3-c]pyridazin-8-yl)piperidin-1-yl)ethyl ((S)-1-((2S,4R)-4-hydroxy-2-(((S)-1-(4-(4-methylthiazol-5-yl)phenyl)ethyl)carbamoyl)pyrrolidin-1-yl)-3,3-dimethyl-1-oxobutan-2-yl)carbamate] | < 100 nM | > 75%
Cc1ncsc1-c1ccc([C@H](C)NC(=O)[C@@H]2C[C@@H](O)CN2C(=O)[C@@H](c2cc(OC(C)CN3CCC(N4CCN5c6cc(-c7ccccc7O)nnc6NC[C@H]5C4)CC3)no2)C(C)C)cc1 (stereo partly drawn) [Example 17, (2S,4R)-4-hydroxy-1-((2R)-2-(3-((1-(4-((S)-2-(2-hydroxyphenyl)-5,6,6a,7,9,10-hexahydro-8H-pyrazino[1′,2′:4,5]pyrazino[2,3-c]pyridazin-8-yl)piperidin-1-yl)propan-2-yl)oxy)isoxazol-5-yl)-3-methylbutanoyl)-N-((S)-1-(4-(4-methylthiazol-5-yl)phenyl)ethyl)pyrrolidine-2-carboxamide] | < 100 nM | > 75%
Cc1ncsc1-c1ccc([C@H](C)NC(=O)[C@@H]2C[C@@H](O)CN2C(=O)[C@@H](c2cc(OCCN3CC4(CC(N5CCN6c7cc(-c8ccccc8O)nnc7NCC6C5)C4)C3)no2)C(C)C)cc1 (stereo partly drawn) [Example 13, (2S,4R)-4-hydroxy-1-((2R)-2-(3-(2-(6-(2-(2-hydroxyphenyl)-5,6,6a,7,9,10-hexahydro-8H-pyrazino[1′,2′:4,5]pyrazino[2,3-c]pyridazin-8-yl)-2-azaspiro[3.3]heptan-2-yl)ethoxy)isoxazol-5-yl)-3-methylbutanoyl)-N-((S)-1-(4-(4-methylthiazol-5-yl)phenyl)ethyl)pyrrolidine-2-carboxamide] | < 100 nM | > 75%
Cc1ncsc1-c1ccc([C@H](C)NC(=O)[C@@H]2C[C@@H](O)CN2C(=O)[C@@H](c2cc(OC(C)CN3CCCC(CN4CCN5c6cc(-c7ccccc7O)nnc6NC[C@H]5C4)CC3)no2)C(C)C)cc1 (stereo partly drawn) [Example 67, (2S,4R)-4-hydroxy-1-((2R)-2-(3-((1-(4-(((S)-2-(2-hydroxyphenyl)-5,6,6a,7,9,10-hexahydro-8H-pyrazino[1′,2′:4,5]pyrazino[2,3-c]pyridazin-8-yl)methyl)azepan-1-yl)propan-2-yl)oxy)isoxazol-5-yl)-3-methylbutanoyl)-N-((S)-1-(4-(4-methylthiazol-5-yl)phenyl)ethyl)pyrrolidine-2-carboxamide] | < 100 nM | > 75%

Further lines, results first:

DC50 | Dmax | Structure (SMILES)
< 100 nM | > 75% | Cc1ncsc1-c1ccc([C@H](C)NC(=O)[C@@H]2C[C@@H](O)CN2C(=O)[C@@H](c2cc(CCCN3CCCC(CN4CCN5c6cc(-c7ccccc7O)nnc6NC[C@H]5C4)C3)no2)C(C)C)cc1 (single isomer, unassigned) [Example 88]
< 100 nM | > 75% | Cc1ncsc1-c1ccc([C@H](C)NC(=O)[C@@H]2C[C@@H](O)CN2C(=O)[C@@H](c2cc(OCCN3CCCC(CN4CCN5c6cc(-c7ccccc7O)nnc6NC[C@H]5C4)C3)no2)C(C)C)cc1 (single isomer, unassigned) [Example 85]
< 100 nM | > 75% | Cc1ncsc1-c1ccc([C@H](C)NC(=O)[C@@H]2C[C@@H](O)CN2C(=O)C(c2cc(COC(=O)N3CCC(N4CCN5c6cc(-c7ccccc7O)nnc6NC[C@H]5C4)CC3)no2)C(C)C)cc1 (stereo partly drawn) [Example 53, (5-(1-((2S,4R)-4-hydroxy-2-(((S)-1-(4-(4-methylthiazol-5-yl)phenyl)ethyl)carbamoyl)pyrrolidin-1-yl)-3-methyl-1-oxobutan-2-yl)isoxazol-3-yl)methyl 4-((S)-2-(2-hydroxyphenyl)-5,6,6a,7,9,10-hexahydro-8H-pyrazino[1′,2′:4,5]pyrazino[2,3-c]pyridazin-8-yl)piperidine-1-carboxylate]
< 100 nM | > 75% | Cc1ncsc1-c1ccc([C@H](C)NC(=O)[C@@H]2C[C@@H](O)CN2C(=O)[C@@H](c2cc(OCCN3CCC(N4CCN5c6cc(-c7ccccc7O)nnc6NC[C@H]5C4)C3)no2)C(C)C)cc1 (single isomer, unassigned) [Example 19]
< 100 nM | > 75% | Cc1ncsc1-c1ccc([C@H](C)NC(=O)[C@@H]2C[C@@H](O)CN2C(=O)[C@@H](c2cc(CCCN3CCN4c5cc(-c6ccccc6O)nnc5NCC4C3)no2)C(C)C)cc1 (stereo partly drawn) [Example 74, (2S,4R)-4-hydroxy-1-((2R)-2-(3-(3-(2-(2-hydroxyphenyl)-5,6,6a,7,9,10-hexahydro-8H-pyrazino[1′,2′:4,5]pyrazino[2,3-c]pyridazin-8-yl)propyl)isoxazol-5-yl)-3-methylbutanoyl)-N-((S)-1-(4-(4-methylthiazol-5-yl)phenyl)ethyl)pyrrolidine-2-carboxamide]
< 100 nM | > 75% | Cc1ncsc1-c1ccc([C@H](C)NC(=O)[C@@H]2C[C@@H](O)CN2C(=O)[C@@H](c2cc(CCN3CCC(N4CCN5c6cc(-c7ccccc7O)nnc6NC[C@H]5C4)CC3)no2)C(C)C)cc1 [Example 91, (2S,4R)-4-hydroxy-1-((R)-2-(3-(2-(4-((S)-2-(2-hydroxyphenyl)-5,6,6a,7,9,10-hexahydro-8H-pyrazino[1′,2′:4,5]pyrazino[2,3-c]pyridazin-8-yl)piperidin-1-yl)ethyl)isoxazol-5-yl)-3-methylbutanoyl)-N-((S)-1-(4-(4-methylthiazol-5-yl)phenyl)ethyl)pyrrolidine-2-carboxamide]
< 100 nM | > 75% | Cc1ncsc1-c1ccc([C@H](C)NC(=O)[C@@H]2C[C@@H](O)CN2C(=O)[C@@H](c2cc(OCCN3CCC(CN4CCC(N5CCN6c7cc(-c8ccccc8O)nnc7NC[C@H]6C5)CC4)CC3)no2)C(C)C)cc1 [Example 20, (2S,4R)-4-hydroxy-1-((R)-2-(3-(2-(4-((4-((S)-2-(2-hydroxyphenyl)-5,6,6a,7,9,10-hexahydro-8H-pyrazino[1′,2′:4,5]pyrazino[2,3-c]pyridazin-8-yl)piperidin-1-yl)methyl)piperidin-1-yl)ethoxy)isoxazol-5-yl)-3-methylbutanoyl)-N-((S)-1-(4-(4-methylthiazol-5-yl)phenyl)ethyl)pyrrolidine-2-carboxamide]
100 to 1000 nM | > 75% | Cc1ncsc1-c1ccc([C@H](C)NC(=O)[C@@H]2C[C@@H](O)CN2C(=O)[C@@H](NC(=O)CN2CC(N3CCN4c5cc(-c6ccccc6O)nnc5NCC4C3)C2)C(C)(C)C)cc1 (stereo partly drawn) [Example 66, (2S,4R)-4-hydroxy-1-((2S)-2-(2-(3-(2-(2-hydroxyphenyl)-5,6,6a,7,9,10-hexahydro-8H-pyrazino[1′,2′:4,5]pyrazino[2,3-c]pyridazin-8-yl)azetidin-1-yl)acetamido)-3,3-dimethylbutanoyl)-N-((S)-1-(4-(4-methylthiazol-5-yl)phenyl)ethyl)pyrrolidine-2-carboxamide]
